Experimental data as given in PMC9965165, “3D-Printing of Capsule Devices as Compartmentalization Tools for Supported Reagents in the Search of Antiproliferative Isatins” (Pharmaceuticals, 2023).
Like-named read-outs stand apart in the source and are kept apart here.

Experiments:
HBL-100 cell line = test system: HBL-100 cell line; set-up: method as in doi:10.1002/ajoc.202100684; details: HBL-100 line; cited from earlier work
HeLa cell line = test system: HeLa cell line; set-up: method as in doi:10.1002/ajoc.202100684; details: cited from earlier work
[1] = test system: murine 3T3 Balb fibroblast cells; experiment: CCK8 antiproliferation / cytotoxicity assay in 3T3 Balb fibroblasts; assay type: cell-based; details: CCK-8 assay, murine fibroblast 3T3 Balb cells
Experimental: (§1) The cytotoxic activity of these new synthesized isatin derivatives was evaluated by means of the CCK8 antiproliferation assay in vitro in two different cell lines: cancerous cervical HeLa and murine 3T3 Balb fibroblast cells. The latter cell line is typically used to analyze the potential toxicity of (nano)materials thanks to their sensitivity. […] It can be observed that fibroblast cells were more sensitive to the presence of isatin derivatives than the cancerous cells in general HeLa ones, probably related to the enhanced replication rate of the tumoral cells. Analysis of the experimental data shown in Figure 6 allowed the determination of IC50 values (see Table 3 and Table 4). […] [65, 66] Compounds 26 and 33 are, therefore, new promising hits for further development.
(§2) Cervical HeLa cancer cells and 3T3 mouse fibroblasts from Cell Biolabs (San Diego, CA, USA) were grown in standard culture conditions (5% CO2 at 37 °C) in DMEM supplemented with 10% (v/v) FBS, 2 mM L-glutamine, 1% (v/v) penicillin/streptomycin, 1 mM sodium pyruvate, and 0.1 mM MEM nonessential amino acids (NEAA).
(§3) Cytotoxicity of the synthesized isatin-based compounds was tested in vitro by means of the CCK-8 cytotoxicity assay. Cancerous cervical HeLa and 3T3 Balb fibroblasts cells were seeded into 96-well plates (1.0 × 10^4 cells/well) and grown for 24 h at an optical confluence of 80–90% under standard culture conditions in 100 μL growth medium. Bare cells were used as the negative control. After 24 h of incubation at 37 °C, 100 μL of NPs at 2.5 × 10^10 NP/mL in the corresponding cell culture medium were injected into the wells and incubated for 24 h and 48 h. After incubation, the culture medium was discarded, cells were washed with 10 mM PBS (pH 7.4) several times, and fresh culture medium (100 μL) containing 10 μL of CCK-8 reagent added to each well. After 2 h, the absorption at 450 nm of cell samples was measured with an UV-vis microplate absorbance reader (Bio-Rad model 689, USA). Cell viability (SR, survival rate) was calculated as follows: SR=Abssample/Absblank×100 where Abssample is the absorbance at 450 nm for cell samples, and Absblank is the absorbance corresponding to the sample controls without the particles.
(§4) For the determination of the half-maximal inhibitory concentration (IC50), a dose–response curve between the isatin derivatives’ concentrations and percent cell viability was plotted and fitted by means of a nonlinear least-squares fitting method (Microcal Origin 2021) to a four-parameter logistic equation: Y=min+((max−min)/1+10^((logIC50−X)×p)) where the original, %control or %survival data are represented by Y along their minimal (min) and maximal (max) values; the isatin derivative concentration is represented by X; IC50 is the concentration at 50% maximal value; and p is the slope factor.

[2] = test system: cancerous cervical HeLa cells; experiment: CCK8 antiproliferation / cytotoxicity assay in HeLa cells; assay type: cell-based, human; details: for specificity for tumoral cells: HeLa versus 3T3 Balb fibroblasts; for IC50: CCK-8 assay, human cervical cancer HeLa cells
Experimental: as §1, §2, §3, §4

cervical tumors = details: cited from earlier work
[3] = Pt-based chemodrug, first line treatment of primary cervical tumors
[4] = drugs used for recurrent and metastatic cervical cancer

Row | Compound | melting point [°C] | IC50 ([1]; Mus musculus) [µM] | IC50 ([2]; Homo sapiens, HeLa) [µM] | further results
1 | CCCCN(C(=O)CCl)C1(C(=O)NC(C)(C)C)C(=O)Nc2ccc(I)cc21 (stereo not drawn) [Compound 12, N-(tert-butyl)-3-(N-butyl-2-chloroacetamido)-5-iodo-2-oxoindoline-3-carboxamide] | 108.5 to 109.7 | 1.3 ± 0.2 | 8.3 ± 0.8 | antiproliferative activity (HBL-100 cell line): potent antiproliferative activity; antiproliferative activity (HeLa cell line): potent antiproliferative activity; specificity for tumoral cells [2]: not showing fully specific toxic activity for cancerous cells
2 | CCCCN(C(=O)CCl)C1(C(=O)NC(C)(C)C)C(=O)Nc2ccc([N+](=O)[O-])cc21 (stereo not drawn) [Compound 13, N-(tert-butyl)-3-(N-butyl-2-chloroacetamido)-5-nitro-2-oxoindoline-3-carboxamide] | 179.5 to 179.8 | 4.8 ± 0.9 | 26.9 ± 1 | 
3 | CCCCN(C(=O)CCl)C1(C(=O)NC(C)(C)C)C(=O)Nc2c(Cl)cc(Cl)cc21 (stereo not drawn) [Compound 14, N-(tert-butyl)-3-(N-butyl-2-chloroacetamido)-5,7-dichloro-2-oxoindoline-3-carboxamide] | 125 to 126 | 1.5 ± 0.3 | 14.1 ± 0.3 | 
4 | CCCCN(C(=O)C(F)(F)F)C1(C(=O)NC2CCCCC2)C(=O)Nc2ccc(Br)cc21 (stereo not drawn) [Compound 15, 5-bromo-3-(N-butyl-2,2,2-trifluoroacetamido)-N-cyclohexyl-2-oxoindoline-3-carboxamide] | 209 to 210 | 28.3 ± 1.7 | 47.7 ± 1.2 | 
5 | CCCCN(C(=O)CCl)C1(C(=O)NC(C)(C)C)C(=O)Nc2ccc(Br)cc21 (stereo not drawn) [Compound 16, 5-Bromo-N-(tert-butyl)-3-(N-butyl-2-chloroacetamido)-2-oxoindoline-3-carboxamide] | 180 to 182 | 1.5 ± 0.8 | 17.9 ± 1.3 | 
6 | CCCCN(C(=O)C(F)(F)F)C1(C(=O)NC(C)(C)C)C(=O)Nc2ccc(I)cc21 (stereo not drawn) [Compound 17, N-(tert-butyl)-3-(N-butyl-2,2,2-trifluoroacetamido)-5-iodo-2-oxoindoline-3-carboxamide] | 204 to 205 | 7.2 ± 0.5 | 33 ± 1.4 | 
7 | CCCCN(C(=O)C(F)(F)F)C1(C(=O)NC2CCCCC2)C(=O)Nc2ccc(I)cc21 (stereo not drawn) [Compound 18, 3-(N-butyl-2,2,2-trifluoroacetamido)-N-cyclohexyl-5-iodo-2-oxoindoline-3-carboxamide] | 218 to 220 | 8.5 ± 0.7 | 6.8 ± 0.5 | 
8 | CCCCN(C(=O)C(F)(F)F)C1(C(=O)NC(C)(C)C)C(=O)Nc2ccc(Br)cc21 (stereo not drawn) [Compound 19, 5-bromo-N-(tert-butyl)-3-(N-butyl-2,2,2-trifluoroacetamido)-2-oxoindoline-3-carboxamide] | 198 to 200 | 7.8 ± 0.4 | 16.8 ± 1.7 | 
9 | CCCCN(C(=O)C(F)(F)F)C1(C(=O)NC(C)(C)C)C(=O)Nc2ccc([N+](=O)[O-])cc21 (stereo not drawn) [Compound 20, N-(tert-butyl)-3-(N-butyl-2,2,2-trifluoroacetamido)-5-nitro-2-oxoindoline-3-carboxamide] | 178 to 180 | 25 ± 1.9 | 26 ± 1.9 | 
10 | O=C1C(=O)N(Cc2cn(Cc3ccccc3)nn2)c2ccc(I)cc21 [Compound 26] |  | 21.5 ± 2 | 2.5 ± 0.4 | specificity for tumoral cells [2]: high specificity for tumoral cells
11 | COC(=O)/C=C/c1ccc2c(c1)C(=O)C(=O)N2Cc1ccccc1 [Compound 31] |  | 3.5 ± 0.8 | 6.8 | IC50 [2]: 8.8 ± 1.1 µM; specificity for tumoral cells [2]: not showing fully specific toxic activity for cancerous cells
12 | N.N.O=C([O-])C1(C(=O)[O-])CCC1.[Pt+2] [carboplatin] |  |  |  | IC50 (cervical tumors; [3]): 1000 µM
13 | N.N.[Cl][Pt][Cl] [cisplatin] |  |  |  | IC50 (cervical tumors; [3]): 15 µM
14 | CC(=O)O[C@H]1C(=O)[C@@]2(C)[C@H]([C@H](OC(=O)c3ccccc3)[C@]3(O)C[C@H](OC(=O)[C@H](O)[C@@H](NC(=O)c4ccccc4)c4ccccc4)C(C)=C1C3(C)C)[C@]1(OC(C)=O)CO[C@@H]1C[C@@H]2O [paclitaxel] |  |  |  | IC50 (cervical tumors; [4]): 21 µM
15 | CC[C@@]1(O)C(=O)OCc2c1cc1n(c2=O)Cc2cc3c(CN(C)C)c(O)ccc3nc2-1 [topotecan] |  |  |  | IC50 (cervical tumors; [4]): 26 µM
16 | N-(tert-butyl)-3-(N-butyl-2-chloroacetamido)-1-methyl-2-oxoindoline-3-carboxamide [Compound 11] |  |  |  | IC50 [1]: 7.3 ± 0.7 µM; IC50 [2]: 40.1 ± 1.5 µM

Second part, led by results:

Row | melting point [°C] | Compound | IC50 ([1]; Mus musculus) [µM] | IC50 ([2]; Homo sapiens, HeLa) [µM] | further results
17 | 200 to 202 | CCCCN(C(=O)C(F)(F)F)C1(C(=O)NC2CCCCC2)C(=O)Nc2ccc([N+](=O)[O-])cc21 (stereo not drawn) [Compound 21, 3-(N-butyl-2,2,2-trifluoroacetamido)-N-cyclohexyl-5-nitro-2-oxoindoline-3-carboxamide] | 17 ± 0.7 | 12.4 ± 0.7 | 
18 | 190.2 to 190.4 | CCCCN(C(=O)CCl)C1(C(=O)NC2CCCCC2)C(=O)Nc2ccc(Br)cc21 (stereo not drawn) [Compound 22, 5-bromo-3-(N-butyl-2-chloroacetamido)-N-cyclohexyl-2-oxoindoline-3-carboxamide] | 0.12 ± 0.01 | 27 ± 0.8 | 
19 | 175 to 177 | O=C1C(=O)N(Cc2cn(Cc3ccccc3)nn2)c2ccccc21 [Compound 25] | 100 ± 3.1 | 13.9 ± 4.5 | 
20 | 158 to 159 | CCOC(=O)Cn1cc(CN2C(=O)C(=O)c3cc(I)ccc32)nn1 [Compound 27] | 7.3 ± 0.7 | 66.9 ± 8.9 | 
21 | 131 to 132 | COC(=O)/C=C/c1ccc2c(c1)C(=O)C(=O)N2CCC(=O)OC [Compound 30, methyl (E)-3-(1-(3-methoxy-3-oxopropyl)-2,3-dioxoindolin-5-yl)acrylate] | 42.1 ± 2.7 | 9.3 ± 0.8 | specificity for tumoral cells [2]: not showing fully specific toxic activity for cancerous cells
22 | 228 to 230 | COC(=O)/C=C/c1ccc2c(c1)C(=O)C(=O)N2Cc1ccc(I)cc1 [Compound 32, methyl (E)-3-(1-(4-iodobenzyl)-2,3-dioxoindolin-5-yl)acrylate] | 32.1 ± 3.4 | 10.8 ± 0.9 | 
23 | 188 to 190 | COC(=O)/C=C/c1ccc(CN2C(=O)C(=O)c3cc(/C=C/C(=O)OC)ccc32)cc1 [Compound 33, methyl (E)-3-(4-((5-((E)-3-methoxy-3-oxoprop-1-en-1-yl)-2,3-dioxoindolin-1-yl)methyl)phenyl)acrylate] | 12.6 ± 0.9 | 1 ± 0.05 | specificity for tumoral cells [2]: high specificity for tumoral cells
